This is an account of results in patent US20080234263A1, “Quinazoline Derivatives” (priority 2003, published 2008).

The target in one assay is T1, EGFR tyrosine kinase (Homo sapiens, UniProt P00533).
T1 construct: Recombinant intracellular fragments of EGFR, erbB2 and erbB4; made in house; host or cells: baculovirus/Sf21 insect cells (cleared lysate used)
The experiment in a line: Protein tyrosine kinase phosphorylation assay, Test (a). The following applies: recombinant intracellular fragment of EGFR, ATP at Km concentration; read-out: IC50 (nM) Test (a) (Inhibition of EGFR tyrosine kinase protein phosphorylation). Type of assay: biochemical. On the procedure: Recombinant intracellular fragments of EGFR, erbB2 and erbB4 (accession numbers X00588, X03363 and L07868 respectively) were cloned and expressed in the baculovirus/Sf21 system. Lysates were prepared from these cells by treatment with ice-cold lysis buffer (20 mM N-2-hydroxyethylpiperizine-N′-2-ethanesulfonic acid (HEPES) pH7.5, 150 mM NaCl, 10% glycerol, 1% Triton X-100, 1.5 mM MgCl2, 1 mM ethylene glycol-bis(β-aminoethyl ether) N′,N′,N′,N′-tetraacetic acid (EGTA), plus protease inhibitors and then cleared by centrifugation.
Specifically, Maxisorb™ 96-well immunoplates were coated with synthetic peptide (0.2 μg of peptide in a 100 μl phosphate buffered saline (PBS) solution and incubated at 4° C. overnight).
The immobilised phospho-peptide product of the reaction was detected by immunological methods. Firstly, plates were incubated for 90 minutes at room temperature with anti-phosphotyrosine primary antibodies that were raised in the mouse (4G10 from Upstate Biotechnology). Following extensive washing, plates were treated with Horseradish Peroxidase (HRP) conjugated sheep anti-mouse secondary antibody (NXA931 from Amersham) for 60 minutes at room temperature.
Kinase inhibition for a given compound was expressed as an IC50 value. […] The range of phosphorylation was calculated from the positive (vehicle plus ATP) and negative (vehicle minus ATP) control values.

The test system of assay [1] is KB cells (human naso-pharangeal carcinoma cells). The experiment in a line: EGFR driven KB cell proliferation assay, Test (b). It is filed as cell-based. The note with it: 96 h, EGF 1 ng/ml, incubation for 4 days, MTT. On the procedure: This assay measures the ability of a test compound to inhibit the proliferation of KB cells (human naso-pharangeal carcinoma obtained from the American Type Culture Collection (ATCC).
Following adhesion to the plate, the cells are treated with or without EGF (final concentration of 1 ng/ml) and with or without compound at a range of concentrations in dimethylsulfoxide (DMSO) (0.1% final) before incubation for 4 days. Following the incubation period, cell numbers were determined by addition of 50 μl of 3-(4,5-Dimethylthiazol-2-yl)-2,5-diphenyltetrazolium bromide ([…]) (stock 5 mg/ml) for 2 hours. MTT solution was then tipped off, the plate gently tapped dry and the cells dissolved upon the addition of 100 μl of DMSO.
Absorbance of the solubilised cells was read at 540 nm using a Molecular Devices ThermoMax microplate reader. Inhibition of proliferation was expressed as an IC50 value. […] The range of proliferation was calculated from the positive (vehicle plus EGF) and negative (vehicle minus EGF) control values.

SMILES strings stand for the structures.

T1 sequence (P00533 669-1210 limits assumed): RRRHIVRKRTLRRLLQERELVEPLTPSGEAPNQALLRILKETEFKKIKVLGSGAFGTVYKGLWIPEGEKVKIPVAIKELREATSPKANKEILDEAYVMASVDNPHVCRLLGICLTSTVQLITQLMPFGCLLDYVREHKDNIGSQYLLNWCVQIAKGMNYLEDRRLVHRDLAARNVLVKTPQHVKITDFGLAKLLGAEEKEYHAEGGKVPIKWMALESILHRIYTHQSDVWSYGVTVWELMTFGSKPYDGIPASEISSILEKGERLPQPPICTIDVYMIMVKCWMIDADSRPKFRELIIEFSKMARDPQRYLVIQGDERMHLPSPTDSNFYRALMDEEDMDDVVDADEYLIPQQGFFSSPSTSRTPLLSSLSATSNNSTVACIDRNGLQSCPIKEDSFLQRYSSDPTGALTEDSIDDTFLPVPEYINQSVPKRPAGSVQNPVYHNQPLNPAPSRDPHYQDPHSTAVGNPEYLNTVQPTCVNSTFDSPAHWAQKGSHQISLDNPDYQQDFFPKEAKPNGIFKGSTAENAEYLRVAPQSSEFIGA

For the compound `COc1cc2ncnc(Nc3ccc(F)c(Cl)c3)c2cc1CN1CCC[C@@H]1C(=O)NCC#N` [Example 20, 1-({4-[(3-Chloro-4-fluorophenyl)amino]-7-methoxyquinazolin-6-yl}methyl)-N-(cyanomethyl)-D-prolinamide], the IC50 on EGFR tyrosine kinase worked out at 64 nM; in assay [1] it was 143 nM.

Regarding `COc1cc2ncnc(Nc3cccc(Cl)c3F)c2cc1CN1CSC[C@H]1C(N)=O` [Example 24, (4R)-3-({4-[(3-Chloro-2-fluorophenyl)amino]-7-methoxyquinazolin-6-yl}methyl)-1,3-thiazolidine-4-carboxamide], the results for the IC50 (at EGFR tyrosine kinase; in assay [1]) were 20 nM and 50 nM, respectively.

`COCCN1CCN(Cc2cc3c(Nc4cccc(Cl)c4F)ncnc3cc2OC)C(C(N)=O)C1` (stereo not drawn) [Example 37, 1-({4-[(3-Chloro-2-fluorophenyl)amino]-7-methoxyquinazolin-6-yl}methyl)-4-(2-methoxyethyl)piperazine-2-carboxamide]: the IC50 on EGFR tyrosine kinase came out at 67 nM; in assay [1], 160 nM.

For orientation: IC50 means the midpoint of a concentration-inhibition curve.
